According to publication PMC11050443, “Discovery of Strong 3-Nitro-2-Phenyl-2H-Chromene Analogues as Antitrypanosomal Agents and Inhibitors of Trypanosoma cruzi Glucokinase” (International Journal of Molecular Sciences, 2024):
Read-outs that look alike come from different tables or passages of the source.

Key:
[1] = molecular target: T1, TcGlcK (Trypanosoma cruzi glucokinase) (Trypanosoma cruzi, UniProt Q4E4E1); assay: TcGlcK primary screening assay (LmG6PDH-coupled, Dixon plots); format: biochemical; details: for Ki: Dixon plots, 0.4, 0.6, 0.8 mM D-glucose, N = 1 unless marked, N = 3 for compounds 1, 4, 9, 11; for Mode of TcGlcK inhibition: Cornish-Bowden method, Dixon plots of [D-Glc]/V versus inhibitor concentration
T1 construct: made in house; host or cells: Escherichia coli BL21(DE3)
T1 sequence (Q4E4E1 1-376): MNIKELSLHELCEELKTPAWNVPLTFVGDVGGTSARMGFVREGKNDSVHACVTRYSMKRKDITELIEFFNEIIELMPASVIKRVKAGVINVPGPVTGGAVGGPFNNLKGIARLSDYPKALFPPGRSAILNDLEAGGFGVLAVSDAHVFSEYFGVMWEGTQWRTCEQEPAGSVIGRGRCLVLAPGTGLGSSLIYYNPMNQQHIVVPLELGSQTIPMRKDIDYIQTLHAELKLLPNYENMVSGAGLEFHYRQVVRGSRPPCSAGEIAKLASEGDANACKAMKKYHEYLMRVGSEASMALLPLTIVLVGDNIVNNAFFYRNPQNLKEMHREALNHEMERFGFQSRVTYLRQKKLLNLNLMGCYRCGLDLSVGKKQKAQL
Protocol: A primary screening assay was carried out for TcGlcK with the 3-nitro-2-phenyl-2H-chromene analogues. The data was subsequently processed for respective Ki values in order to assess enzyme inhibition. […] The primary screening assay was performed with the substrate D-glucose in various concentrations of 0.4 mM, 0.6 mM, and 0.8 mM to produce Dixon plots with different slopes. Each of the 3-nitro-2-phenyl-2H-chromene analogues were originally prepared at a working concentration of 1.0 mM and were dissolved in 100% DMSO. The final assay concentrations of the analogue compounds (inhibitors) ranged from 0.0–10.0 μM. The analogue compounds were pre-incubated with the enzyme system a minimum of 10 min prior to the initiation of the assay. The enzymatic reaction was carried out at room temperature (22 °C; temperature optimum) using ATP to initiate the reaction, and termination was performed after 120 s (time optimum) by stopping the reaction with the addition of an EDTA (pH 8.0) solution, to a final concentration of 100 mM. TcGlcK enzyme activity was analyzed for the production of NADPH. Each completed reaction mixture was added into a black, round-bottom microplate and scanned by a VANTAstar-F multi-mode microplate reader (BMG LABTECH, Inc.; Cary, NC, USA). The instrument was set to fluorescence mode and the wavelengths (λex = 340 nm; λem = 485 nm) were set to observe the relative fluorescence units of NADPH [40]. The enzyme-inhibition kinetics Ki value determination and the mode of inhibition was determined using the Cornish–Bowden Dixon Plot analysis method.

[2] = test system: T. brucei brucei (427 strain) bloodstream form; assay: In vitro T. brucei biological assay (Alamar blue); format: cell-based, Trypanosoma brucei brucei; details: for anti-T. brucei activity (in words): T. brucei brucei 427 strain bloodstream form
Protocol: The in vitro cell culture preparation of T. brucei brucei (427 strain) trypomastigote bloodstream form followed by treatment with inhibitors has recently been described by Ajayi and colleagues. The 3-nitro-2-phenyl-2H-chromene compounds (inhibitors) that were prepared as 10.0 mM stock solutions in 100% DMSO were thawed from −80 °C to room temperature. HMI-9 medium [Iscove’s modification of DMEM supplemented with 10% FBS, 10% serum plus (SAFC), 0.05 mM bathocuproinesulfonate, 1.5 mM L-cysteine, 1.0 mM hypoxanthine, 0.2 mM β-mercaptoethanol, 0.16 mM thymidine, and 1.0 mM pyruvate] was prepared. In a sterile, round-bottom, 96-well microplate, 100 μL of HMI-9 medium was added to each well. A volume of 2.0 μL of a given compound plus a volume of 98.0 μL of fresh media were both added to a well in the first row of the 96-well microplate; this was performed for each compound to be tested. Solutions were mixed with a micropipette followed by transfer of 100 μL to the next row and repeated. The compound solutions ranged from 0.0781–10.0 μM and this was accomplished by serial dilution using a 2-fold dilution. T. brucei parasites were centrifuged for 10 min at 900× g (without centrifuge breaks). The media was carefully discarded by aspiration and the parasites were resuspended in warm media. Parasites were counted in a Newbauer chamber. Afterwards, the parasites were diluted to 50,000 cells/mL (5000 cells/well) and 100 μL was added to each well of the 96-well microplate using a multichannel pipette. After 48 h, 20.0 μL of Alamar blue was added to each well and the plate was placed into an incubator for 4 h at 37 °C. Fluorescence readings were measured using a Victor Nivo multimode microplate reader (PerkinElmer, Inc.; Shelton, CT, USA) at λex = 530 nm and λem = 590 nm. All measurements were performed in triplicate and IC50 determinations for percent growth inhibition were carried out using GraphPad Prism 10.0. The detergent SDS was used as a positive control and its final solution concentration was 0.5%. Three control experiments were performed, as follows: (a) parasites alone, (b) parasites and 0.5% SDS, and (c) the medium alone.

[3] = molecular target: T2, LmG6PDH (Leuconostoc mesenteroides glucose-6-phosphate dehydrogenase) (Leuconostoc mesenteroides, UniProt P11411); assay: Confirmatory assay on the LmG6PDH enzyme-coupled system; format: biochemical; details: for inhibition at 20 µM: read-out: LmG6PDH Inh20; for LmG6PDH inhibitory effect (in words): 20 µM compound
T2 construct: purchased Worthington Biochemical Corporation
T2 sequence (P11411 whole entry): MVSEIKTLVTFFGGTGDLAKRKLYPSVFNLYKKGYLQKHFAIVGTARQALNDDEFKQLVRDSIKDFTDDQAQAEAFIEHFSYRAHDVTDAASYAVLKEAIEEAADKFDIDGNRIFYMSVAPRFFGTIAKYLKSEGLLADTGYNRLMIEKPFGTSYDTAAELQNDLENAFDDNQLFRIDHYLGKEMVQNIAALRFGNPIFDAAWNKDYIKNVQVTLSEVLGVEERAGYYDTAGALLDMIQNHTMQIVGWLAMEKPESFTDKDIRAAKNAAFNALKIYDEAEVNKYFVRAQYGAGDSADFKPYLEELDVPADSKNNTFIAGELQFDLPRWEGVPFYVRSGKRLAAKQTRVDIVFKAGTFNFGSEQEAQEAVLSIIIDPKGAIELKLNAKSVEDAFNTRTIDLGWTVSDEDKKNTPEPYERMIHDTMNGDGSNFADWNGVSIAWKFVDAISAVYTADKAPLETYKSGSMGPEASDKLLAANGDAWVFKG
Protocol: Two criteria were examined in order to certify on-target confirmed hits: (a) the assessment of potential inhibition to the LmG6PDH enzyme-coupled system, and (b) the precision of the assay (per inhibitor), performed in quadruplicate (N = 4). Compounds were tested in quadruplicate in a black, round-bottom 96-well microplate in which wells were filled with a buffered solution (50 mM triethanolamine, 150 mM NaCl) amounting to a total volume of 206.5 μL that contained the following reagents at final assay concentrations: LmG6PDH (6.1 μg/mL), NADP^+ (0.54 mM), ATP (0.54 mM), MgCl2 (6.9 mM), DMSO (1.0% by vol.), D-glucose-6-phosphate (0.80 mM), and a 3-nitro-2-phenyl-2H-chromene analogue (20.0 μM). The analogue compounds were pre-incubated with the enzyme system a minimum of 10 min prior to the initiation of the assay. The enzymatic reactions were initiated and terminated similarly as described in the TcGlcK primary screen (vide supra). The production of NADPH was monitored using the VANTAstar-F multi-mode microplate reader set to fluorescent mode, λex = 340 nm and λem = 485 nm, over a 120-s timeframe.

[4] = Trypanosoma brucei, 48 h, T. brucei brucei 427 strain bloodstream form growth inhibition, N = 3
[5] = percentage of inhibition at 20 µM compound in comparison to controls, N = 4
[6] = Trypanosoma brucei, bound stated in the text for the top seven anti-T. brucei compounds
[7] = T. brucei brucei 427 strain bloodstream form growth inhibition, 48 h, N = 3

| SMILES | Ki [1] [nM] | IC50 [2, 4] [nM] | inhibition at 20 µM [3, 5] [%] | Mode of TcGlcK inhibition [1] | anti-T. brucei activity (in words) [2] | IC50 [2, 6] [nM] | LmG6PDH inhibitory effect (in words) ([3]; N = 4) | IC50 [2, 7] [nM] | inhibition at 20 µM [3] [%] |
| --- | --- | --- | --- | --- | --- | --- | --- | --- | --- |
| O=[N+]([O-])C1=Cc2ccccc2OC1c1c(Cl)cccc1Cl (centres unmarked) [Compound 13, 2-(2,6-Dichlorophenyl)-3-nitro-2H -chromene] | 25000 | 1280 ± 100 | 0 | – | – | – | – | – | – |
| CCOc1ccc(C2Oc3ccc(Br)cc3C=C2[N+](=O)[O-])cc1OCC (centres unmarked) [Compound 2, 6-Bromo-2-(3,4-diethoxyphenyl)-3-nitro-2H -chromene] | 46000 | 1190 ± 40 | 0 | – | – | – | – | – | – |
| CCOc1ccc(C2Oc3c(Cl)cc(Cl)cc3C=C2[N+](=O)[O-])cc1OCC (centres unmarked) [Compound 9, 6,8-Dichloro-2-(3,4-diethoxyphenyl)-3-nitro-2H -chromene] | 12300 ± 5500 | 660 ± 50 | 10.1 ± 0.1 | mixed-mode inhibition | nanomolar potency | < 750 | did not observe any significant LmG6PDH inhibitory effects | – | – |
| COc1ccc(C2Oc3c(Br)cc(Br)cc3C=C2[N+](=O)[O-])cc1OC (centres unmarked) [Compound 5, 6,8-Dibromo-2-(3,4-dimethoxyphenyl)-3-nitro-2H -chromene] | 35000 | < 550 | 0 | – | nanomolar potency | < 750 | – | 420 ± 40 | – |
| O=[N+]([O-])C1=Cc2cc(Br)ccc2OC1c1ccccc1Cl (centres unmarked) [Compound 11, 6-Bromo-2-(2-chlorophenyl)-3-nitro-2H -chromene] | 20000 ± 4300 | 860 ± 200 | 15 ± 0.1 | noncompetitive inhibition | nanomolar potency | – | did not observe any significant LmG6PDH inhibitory effects | – | – |
| CCOc1ccc(C2Oc3ccc(Br)cc3C=C2[N+](=O)[O-])cc1OC (centres unmarked) [Compound 1, 6-Bromo-2-(4-ethoxy-3-methoxyphenyl)-3-nitro-2H -chromene] | 6200 ± 1200 | 610 ± 30 | 15.4 ± 0.1 | uncompetitive inhibition | nanomolar potency | < 750 | did not observe any significant LmG6PDH inhibitory effects | – | – |
| CCOc1ccc(C2Oc3ccccc3C=C2[N+](=O)[O-])cc1OCC (centres unmarked) [Compound 10, 2-(3,4-Diethoxyphenyl)-3-nitro-2H -chromene] | 23000 | 1120 ± 300 | – | – | – | – | – | – | 0 |
| CCOc1ccc(C2Oc3c(cc(Br)cc3OC)C=C2[N+](=O)[O-])cc1OC (centres unmarked) [Compound 8, 6-Bromo-2-(4-ethoxy-3-methoxyphenyl)-8-methoxy-3-nitro-2H -chromene] | 30000 | 740 ± 140 | 0 | – | nanomolar potency | < 750 | – | – | – |
| COc1ccc(C2Oc3ccc(Br)cc3C=C2[N+](=O)[O-])cc1OC (centres unmarked) [Compound 4, 6-Bromo-2-(3,4-dimethoxyphenyl)-3-nitro-2H -chromene] | 5500 ± 1800 | < 550 | 12.1 | mixed-mode inhibition | nanomolar potency | < 750 | did not observe any significant LmG6PDH inhibitory effects | 440 ± 30 | – |
| COc1ccc(C2Oc3c(cc(Br)cc3OC)C=C2[N+](=O)[O-])cc1OC (centres unmarked) [Compound 3, 6-Bromo-2-(3,4-dimethoxyphenyl)-8-methoxy-3-nitro-2H -chromene] | 24000 | < 550 | 0 | – | nanomolar potency | < 750 | – | 520 ± 50 | – |
| O=[N+]([O-])C1=Cc2cc(Br)cc(Br)c2OC1c1c(Cl)cccc1Cl (centres unmarked) [Compound 7, 2-(2,6-Dichlorophenyl)-6,8-dibromo-3-nitro-2H -chromene] | 50000 | 900 ± 330 | 0 | – | nanomolar potency | – | – | – | – |
| CCOc1ccc(C2Oc3c(Br)cc(Br)cc3C=C2[N+](=O)[O-])cc1OC (centres unmarked) [Compound 6, 6,8-Dibromo-2-(4-ethoxy-3-methoxyphenyl)-3-nitro-2H -chromene] | 6100 | < 550 | 16.1 | – | nanomolar potency | < 750 | did not observe any significant LmG6PDH inhibitory effects | 360 ± 60 | – |
